{
  "source": "BindingDB's records for doi:10.1021/acs.jmedchem.9b01152",
  "about": "(Universidad De Navarra, 2020)",
  "biological_target": "Histone deacetylase 8 (Homo sapiens) (UniProt Q9BY41)",
  "sequence (Q9BY41 whole entry, looked up)": "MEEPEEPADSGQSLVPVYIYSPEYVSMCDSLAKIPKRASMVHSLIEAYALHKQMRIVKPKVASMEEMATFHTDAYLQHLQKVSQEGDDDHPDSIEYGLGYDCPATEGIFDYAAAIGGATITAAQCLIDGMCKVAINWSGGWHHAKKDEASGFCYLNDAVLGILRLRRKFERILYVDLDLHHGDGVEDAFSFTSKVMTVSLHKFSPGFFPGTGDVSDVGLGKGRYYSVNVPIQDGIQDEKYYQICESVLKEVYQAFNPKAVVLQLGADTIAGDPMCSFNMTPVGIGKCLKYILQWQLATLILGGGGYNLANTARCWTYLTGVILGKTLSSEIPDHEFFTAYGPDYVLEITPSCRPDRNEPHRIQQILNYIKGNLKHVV",
  "experiment": "Inhibition of human recombinant HDAC8 using RHKAcKAc-AMC substrate by fluorescence based assay",
  "data": [
    {"molecule": "O=c1c2ccccc2[se]n1-c1ccccc1", "note": "[2-Phenyl-benzo[d]isoselenazol-3-one]", "values": [
      {"measurement": "IC50", "value": 1.2, "unit": "µM"}
    ]}
  ]
}
